Laboratory results reported in ChEMBL document CHEMBL1150642, “Hirsutellide A, a new antimycobacterial cyclohexadepsipeptide from the entomopathogenic fungus Hirsutella kobayasii” (J Nat Prod, 2002).
≈ marks a conversion by molar mass, not a printed value. Where a SMILES comes first, the peptide text is derived from it. [ ]: non-standard residue; d: D form. aIle = CC[C@@H](C)[C@H](N)C(=O)O; dPhLac = O=C(O)[C@H](O)Cc1ccccc1; Sar = CNCC(=O)O

Key:
[1] = tested on: Plasmodium falciparum; test: Antimalarial activity as reduced parasitaemia against multidrug-resistant Plasmodium falciparum K1 by [3H]hypoxanthine uptake; format: functional, organism-based
[2] = Cytotoxicity against human BC1 cells; format: functional, cell-based
[3] = tested on: Vero; test: Cytotoxicity against african green monkey Vero cells at 50 ug/mL by SRB assay; format: cell-based; details: Chlorocebus sabaeus
[4] = tested on: Mycobacterium tuberculosis; test: Antimycobacterial activity against Mycobacterium tuberculosis H37Ra by Microplate Alamar Blue Assay; format: functional

C[C@@H]1CC[C@H]2[C@@H](C)C(=O)O[C@@H]3O[C@@]4(C)CC[C@@H]1[C@]32OO4 [ARTEMISININ]
IC50 [1]: 0.001 µg/mL (≈ 0.00354 µM)

Cc1c2ccncc2c(C)c2c1[nH]c1ccccc12 [ELLIPTECINE]
IC50 [2]: 0.3 µg/mL (≈ 1.22 µM)

CC[C@@H](C)[C@@H]1NC(=O)[C@@H](Cc2ccccc2)OC(=O)CN(C)C(=O)[C@H]([C@H](C)CC)NC(=O)[C@@H](Cc2ccccc2)OC(=O)CN(C)C1=O [HIRSUTELLIDE A] (cyclo([Sar][dPhLac][aIle][Sar][dPhLac][aIle]))
IC50 [3]: 2.8 µg/mL (≈ 4.21 µM)
MIC [4]: 6 µg/mL (≈ 9.03 µM)
Activity [1]: Not toxic

NNC(=O)c1ccncc1 [ISONIAZID]
MIC [4]: 0.04 µg/mL (≈ 0.292 µM)

NC[C@H]1O[C@H](O[C@H]2[C@H](O)[C@@H](O[C@H]3O[C@H](CO)[C@@H](O)[C@H](N)[C@H]3O)[C@H](N)C[C@@H]2N)[C@H](O)[C@@H](O)[C@@H]1O.O=S(=O)(O)O [KANAMYCIN SULFATE]
MIC [4]: 2 µg/mL
